From patent publication US7241878B1, “Modified cellulose synthase gene from Arabidopsis thaliana confers herbicide resistance to plants” (U.S. Department of Energy, priority 1999, dated 2007)
pIC50: −log10 of the molar value.

Legend:
[1] = tested on: cellulose synthesis in algae and plants; details: cited from earlier work
wild type Arabidopsis = details: 12 μM; cited from earlier work
ixr1-1 mutant = details: 12 μM; cited from earlier work
[2] = tested on: ixr1-1-, ixr1-2- and wild-type Arabidopsis plants; experiment: isoxaben-resistance pilot screen, spraying of soil-grown plants; type: in vivo, Arabidopsis thaliana; details: sprayed every 3 days from seedling stage, 1 ml/6 cm^2 soil surface, 0.025% DMSO
Description: Seeds from homozygous isoxaben-resistant mutants ixr1-1 (DH47) and ixr1-2 (DH48) (Heim et al., 1989) were obtained from the Arabidopsis Biological Resource Center, Columbus, Ohio (ABRC stock numbers CS 6201 and CS 6202). Seeds were vernalized for five days in 0.15% water agar at 6° C. prior to planting in a commercial peat-vermiculite-perlite mix (ProMix HP with a 1 cm top-layer of ProMix PGX, Premier Horticulture Inc., Red Hill, Pa., Canada). Plants were grown in the greenhouses of Carnegie Institution of Washington, Department of Plant Biology, Stanford, Calif. between July 1998 and June 1999. Seeds from self-pollinated ixr1-1 and ixr1-2 mutants were collected separately and used for further experiments.
Isoxaben (95%, N-3-[1-ethyl-1-methyl-propyl]-5-isoxazolyl-2, 6-dimethoxybenzamide) was graciously supplied by DowElanco (Indianapolis, Ind.) and was made up as a concentrated dimethylsulfoxide (DMSO) stock solution and used at concentrations ranging from 0.03 to 10.0 μM. The final concentration of DMSO was always 0.025%. Control cultures without isoxaben contained the same amount of DMSO as the isoxaben-treated cultures; no effect of DMSO was noted.

Brassica napus = details: in vivo; read-out: I50 for Brassica napus; cited from earlier work
cellulose biosynthesis = details: compared with dichlobenil, another cellulose synthesis inhibitor; cited from earlier work
[3] = tested on: seed germination, mitosis, respiration, photosynthesis, and lipid and RNA synthesis; details: cited from earlier work
[4] = tested on: wild-type Col and Ler plants; experiment: growth analysis under isoxaben spray, wild-type plants; details: 2.0 μM isoxaben in the spray solution
Description: (§1) Seeds from wild-type Col and Ler, ixr1-1 and ixr1-2 homozygous mutants and F1- and F2-seeds were germinated again and treated as described using 2.0 μM isoxaben in the solution.

[5] = tested on: ixr1-1 and ixr1-2 mutant plants; experiment: growth analysis under isoxaben spray, ixr1 mutant plants; details: 2.0 μM isoxaben
Description: as §1

N#Cc1c(Cl)cccc1Cl [DCB, 2,6-dichlorobenzonitrile]
inhibition of cellulose synthesis [1]: effective and specific inhibitor

CC(C)(C)NC(=O)OC1SCN(c2cccc(C(F)(F)F)c2)C1=O (stereo not shown) [TZ, 5-tert-butyl-carbamoyloxy-3-(3-trifluromethyl) phenyl-4-thiazolidnone]
effect on wild type Arabidopsis (wild type Arabidopsis): kills | reduction of growth of the ixr1-1 mutant (ixr1-1 mutant): 50%

CCC(C)(CC)c1cc(NC(=O)c2c(OC)cccc2OC)on1 [isoxaben, N-3-[1-ethyl-1-methyl-propyl]-5-isoxazolyl-2,6-dimethoxybenzamide]
concentration in the application solution high enough to discriminate resistant and susceptible plants [2]: 1.0 to 3.0 µM | pIC50 (Brassica napus): 7.70 | acts at lower concentrations than dichlobenil (factor) (cellulose biosynthesis): < 40 × | effect on other cellular processes [3]: unaffected | growth of wild-type plants [4]: didn't grow at all | growth of heterozygous mutant F1-plants ([5]; heterozygous F1, compared to the homozygous mutants): clearly reduced growth | growth of homozygous mutants ([5]; homozygous ixr1-1 and ixr1-2 (ixr1-1 grew better than ixr1-2)): grew well
